Results from patent publication US5821231A, “CS-1 peptidomimetics, compositions and methods of using same” (Cytel Corporation, priority 1995, dated 1998).
Square brackets hold non-standard residues; d marks the D form. Peptide text beside a SMILES is read from it. * marks the point of attachment. PhAc = O=C(Cc1ccccc1)*

Experiments:
[1] = test system: New Zealand white rabbits; experiment: Rabbit heterotopic cardiac allograft model; assay type: in vivo
Description: New Zealand white female rabbits (Charles River Lab., Saint Laurent, Quebec), between 3.5 and 4 kg underwent heterotopic cardiac transplant following an experimental protocol previously described [Alonso et al., Am. J. Pathol., 87:415-442 (1977); Clausell et al., Circulation, 89:2768-2779 (1994)]. The animals were unselected to favor an HLA-mismatch, the host rabbits were Pasteurella-free and the donors, outbred animals. Both host and donor rabbits were fed Purina 5321-0.5 percent cholesterol diet (Research Diets Inc., New Brunswick, N.J.), a strategy that has proven useful in accelerating the process of allograft arteriopathy [Alonso et al., Am, J. Pathol., 87:415-442 (1977)]. The diet was commenced four days prior to the transplant and continued in the recipient of the transplant until the completion of the experimental period.
The technique of heterotopic cardiac transplantation has been previously described [Clausell et al., Circulation, 89:2768-2779 (1994)]. Briefly, a vertical incision was performed in the anterior aspect of the neck of the recipient rabbit and the left common carotid artery and the ipsilateral external jugular vein were isolated. The cardiac allograft was placed in the neck by anastomosing the aorta end-to-side to the recipient's carotid artery and the pulmonary end-to-side to the recipient's external jugular vein, following a total period of ischemia for the donor hearts of approximately 30 minutes. Postoperative care was in compliance with the Principles of Laboratory Animal Care formulated by the Canadian National Society for Medical Research.
Beginning the day of the transplant, the animals were randomized and treated with either scrambled compound (control group) at 1 mg/kg s.c. or the inhibitor compound at 1 mg/kg s.c. The doses of the compounds were empirically extrapolated to the in vivo model based on preliminary in vitro studies, of Table 1. No other immunosuppression therapy was administered. The grafts were monitored daily by palpation and maintained for 7 to 8 days, a previously described endpoint that was associated with myocardial rejection (impaired cardiac contractility) and development of the allograft arteriopathy in this model [Clausell et al., Circulation, 89:2768-2779 (1994)]. A total of fourteen animals were studied in the control (n=7) and treated (n=7) groups.
The animals were sacrificed using a lethal dose of euthanol (480 mg i.v.) (MTC Pharmaceutical, Cambridge, ON), host and donor hearts were removed, and the coronary arteries were perfused with saline through the aorta, followed by light fixation by perfusion with 2 percent paraformaldehyde (Sigma, St, Louis, Mo.). […] Different sections of the hearts were either saved in 10 percent formalin (BDH Inc., Toronto, ON) for light microscopy studies or immediately frozen in O.T.C. Compound Tissue Tek (Miles Inc., Elkart, Ind.) for specific immunohistochemistry studies.
Three different paraffin-embedded tissue sections from host and donor hearts from both control and treated rabbits were stained by the Movat pentachrome method for light microscopy. Morphometric analysis was performed using a Zeiss microscope attached to a computer-generated video analysis system (Perceptics Inc., NuVision software), as described in Clausell et al., Circulation, 89:2768-2779 (1994). The number of vessels with intimal lesions were counted in all three heart sections from each animal studied and are expressed as a percentage of the total vessel number.
In the host hearts, 999 vessels in the control group and 1054 vessels in the treated group were analyzed. In the donor hearts, 827 vessels in the control group and 617 vessels in the treated group were analyzed. To determine the severity of intimal thickening, the diameter of each traceable vessel in all three sections was measured and the coronary arteries were categorized as small (diameter <100 μm), medium (diameter >100<500 μm) and large (diameter >500 μm). […]

VLA-4 = VLA-4 (Homo sapiens, UniProt P05556+P13612); experiment: In vitro binding assay: 51Cr-labeled Jurkat cells to solid phase-bound CS-1 compound (SEQ ID NO:1); assay type: cell-based; parameters: inflammatory cells that contain the VLA-4 receptor [Jurkat cells; host or cells: Jurkat cells (human T lymphoblastic line)
Protocol: Binding inhibition is measured here as a concentration of compound that inhibits one-half the binding between a standard number of Jurkat cells and a standard amount of CS-1 compound bound to the surface of a microtiter plate well. Those concentrations are conveniently expressed as IC50 values, smaller numbers indicating a lower concentration required to inhibit 50 percent binding and therefore greater potency. Further specifics of this assay are provided hereinafter.
Jurkat cells (ATCC TIB 152), a human T lymphoblastic line, labeled with ^51 chromium were used to assay in vitro binding inhibition provided by various compounds discussed herein.
The plates were prepared as follows: The 25-mer CS-1 compound (SEQ ID NO:1) dissolved at 0.5-1 μg/ml in a buffer of 0.1M NaHCO3 at pH 9.5 that also contained 10 μg/ml of bovine serum albumin (BSA) or a conjugate of the CS-1 compound linked to ovalbumin (CS-1-OVA) dissolved at 1-2.5 μg/ml in the same buffer was used as the substrate. Each well of the microtiter plates was coated with 50 μl of substrate or buffer alone for controls. The wells were permitted to dry out completely and were then rinsed twice with PBS at pH 7.4. Non-specific binding sites of each well were then blocked using 200 μl per well of RPMI/1 percent BSA for two hours at room temperature.
Jurkat cells (3-5×10^6 cells) were placed into a 15 ml Falcon™ round-bottom tube with a cap. The tube was centrifuged, and the extra medium was then removed.
Two hundred microliters of a ^51 Cr labeling solution were added to the centrifuged cells and maintained in contact with the cells for 90-120 minutes in a warm room. […] Longer contact times provide a greater amount of labeling but lower cell viability.
The labeled cells are washed with (i) complete medium, (ii) 1 mM EDTA/PBS and then (iii) RPM1/1 percent BSA free of serum components. The cells are centrifuged after each washing. The cells are finally resuspended in serum-free RPMI/1 percent BSA at a concentration of 1×10^6 viable cells/ml, which provides a concentration that is diluted by one-half in the assay.
Inhibitor compounds are prepared as stock solutions at 20 mg/ml in DMSO in 1.5 ml cryogenic screwcap vials, and were stored at -70° C. Using Flow™ round-bottom or V-bottom microtiter plates, the inhibitor compounds were prepared at twice the assay concentration in RPMI/1 percent BSA at 60 μl/well.
Four initial dilutions were typically used.
The ^51 Cr-labeled cells ([…] at 60 μl/well) were then admixed with the diluted compound solutions. The admixtures were maintained at room temperature (about 22° C.) for 30 minutes.
One hundred microliters of each inhibitor compound/cell admixture were transferred to the substrate-coated wells. This was done in triplicate for each dilution. The resulting plates were incubated for 30 minutes at 37° C. and then washed gently three times with RPMI/1 percent BSA at 200 μl/well. Binding was observed microscopically, particularly after the second wash.
The bound cells were then lysed by the addition of a 0.5 percent solution of sodium dodecylsulfate in water at 100 μl/well. The resulting solutions were then processed for counting and calculation of IC50 values following usual procedures.
The data of Table 1 are normalized to the binding of SEQ ID NO: 3. […] Multiple assays for the same compound were averaged.

Chain of VLA-4 (P13612 34-1032): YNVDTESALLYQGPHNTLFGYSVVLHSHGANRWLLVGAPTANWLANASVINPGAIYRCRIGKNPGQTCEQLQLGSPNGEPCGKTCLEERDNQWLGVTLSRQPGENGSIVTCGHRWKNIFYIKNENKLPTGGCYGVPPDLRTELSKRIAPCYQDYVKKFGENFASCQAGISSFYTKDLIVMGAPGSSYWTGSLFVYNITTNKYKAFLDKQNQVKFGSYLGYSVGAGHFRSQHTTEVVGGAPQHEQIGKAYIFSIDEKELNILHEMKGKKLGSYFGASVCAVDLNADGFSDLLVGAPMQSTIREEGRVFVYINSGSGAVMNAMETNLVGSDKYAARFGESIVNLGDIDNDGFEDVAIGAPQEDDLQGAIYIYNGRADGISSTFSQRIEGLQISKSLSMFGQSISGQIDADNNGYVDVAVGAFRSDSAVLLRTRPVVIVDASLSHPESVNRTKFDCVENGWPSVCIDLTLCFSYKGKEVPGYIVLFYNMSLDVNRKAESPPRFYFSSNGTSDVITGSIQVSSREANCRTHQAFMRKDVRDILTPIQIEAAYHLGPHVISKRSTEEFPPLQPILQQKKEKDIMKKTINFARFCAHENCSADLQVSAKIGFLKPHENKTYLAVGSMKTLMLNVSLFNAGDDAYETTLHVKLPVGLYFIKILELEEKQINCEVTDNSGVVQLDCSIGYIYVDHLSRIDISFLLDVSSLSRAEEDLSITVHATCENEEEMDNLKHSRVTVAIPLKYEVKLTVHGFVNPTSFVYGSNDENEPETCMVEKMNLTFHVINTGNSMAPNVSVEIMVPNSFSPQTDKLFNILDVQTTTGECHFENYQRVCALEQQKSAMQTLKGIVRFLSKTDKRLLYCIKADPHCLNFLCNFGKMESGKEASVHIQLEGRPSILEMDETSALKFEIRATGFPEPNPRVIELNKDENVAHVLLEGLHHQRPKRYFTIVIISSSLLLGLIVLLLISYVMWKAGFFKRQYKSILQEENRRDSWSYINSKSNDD
Chain of VLA-4 (P05556 21-798): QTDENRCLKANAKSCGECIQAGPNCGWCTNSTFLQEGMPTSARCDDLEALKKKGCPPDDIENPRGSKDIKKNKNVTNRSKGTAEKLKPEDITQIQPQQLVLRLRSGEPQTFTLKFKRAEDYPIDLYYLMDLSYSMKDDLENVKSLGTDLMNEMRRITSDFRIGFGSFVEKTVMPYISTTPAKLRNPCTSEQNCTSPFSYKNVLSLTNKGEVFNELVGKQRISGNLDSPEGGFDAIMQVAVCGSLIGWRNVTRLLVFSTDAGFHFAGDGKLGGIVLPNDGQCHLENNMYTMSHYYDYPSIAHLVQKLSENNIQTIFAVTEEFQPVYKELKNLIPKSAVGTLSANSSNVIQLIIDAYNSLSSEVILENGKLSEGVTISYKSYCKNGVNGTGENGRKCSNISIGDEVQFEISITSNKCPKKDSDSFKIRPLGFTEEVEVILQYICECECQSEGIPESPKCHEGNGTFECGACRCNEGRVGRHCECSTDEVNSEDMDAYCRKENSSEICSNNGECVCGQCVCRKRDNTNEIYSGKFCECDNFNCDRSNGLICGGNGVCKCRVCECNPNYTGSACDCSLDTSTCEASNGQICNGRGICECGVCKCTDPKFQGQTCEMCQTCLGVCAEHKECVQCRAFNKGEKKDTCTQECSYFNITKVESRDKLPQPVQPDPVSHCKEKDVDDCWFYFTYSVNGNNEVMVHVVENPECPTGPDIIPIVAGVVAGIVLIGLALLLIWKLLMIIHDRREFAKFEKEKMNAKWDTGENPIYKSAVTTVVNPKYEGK

With `CC(C)C[C@H](NC(=O)[C@H](CC(=O)O)NC(=O)Cc1ccccc1)C(=O)N[C@@H](Cc1ccccc1)C(=O)N1CCC[C@@H]1C(N)=O` [N-phenylacetyl-Asp-Leu-Phe-D-Pro-NH2, reference compound] (PhAc-DLF[dP]-NH2) the “Vessel Intimal Thickening: Percent of Vessels” value ([1]; donor heart, 1 mg/kg s.c.) was 88%, the “Vessel Intimal Thickening: Severity (Percent of Vessel area)” value ([1]; donor heart, 1 mg/kg s.c.) was 36% and the “Baseline of incidence of intimal thickening” value ([1]; rabbit own host heart) was 1%. For the same molecule, the “Baseline of severity of intimal thickening” value ([1]; rabbit own host heart) was 12%, the “Relative Potency” value (VLA-4; binding inhibition potency (IC50) relative to standard compound of SEQ ID NO:3 = 1, about one-tenth or less assigned zero) was 0 and the “VLA-4 binding inhibition (in words)” value (VLA-4; compared with standard 10-mer of SEQ ID NO:3 or other peptides) was “no inhibition of VLA-4”.
